Literature values as cited in paper PMC8226449, “In Vitro Evaluation of the Squaramide-Conjugated Fibroblast Activation Protein Inhibitor-Based Agents AAZTA^5.SA.FAPi and DOTA.SA.FAPi” (Molecules, 2021).

Set-up: method as in PMID 32332144
Conditions: reported in the literature; cited from earlier work

## N#C[C@@H]1CC(F)(F)CN1C(=O)CNC(=O)c1ccnc2ccc(OCCCN3CCN(C(=O)CN4CCN(CC(=O)O)CCN(CC(=O)O)CCN(CC(=O)O)CC4)CC3)cc12 (68Ga complex, metal not drawn) [FAPI-04]
  logD: −2.4 ± 0.28
